Measured values taken from publication PMC10541198, “Specific quinone reductase 2 inhibitors reduce metabolic burden and reverse Alzheimer’s disease phenotype in mice” (The Journal of Clinical Investigation, 2023).
Values joined by “and” are separate entries in the source; they are usually repeats but may differ in a detail not shown here. Equal entries are not always repeated.

Tested on: 5xFAD mice
Assay: Morris water maze in 5xFAD mice
Format: in vivo, mouse
Details: for MWM escape latency (individual mice): 5xFAD 1 month
Method: We next aimed to test the effect of QR2 inhibition in AD model mice using YB-537, taking advantage of its extremely high specificity, solubility, and lack of toxicity. First, we determined YB-537 pharmacokinetics (PK) and oral bioavailability and assessed any acute observable toxicity in mice. […] We therefore opted to chronically deliver YB-537 to AD-model mice via their drinking water, so they may freely ingest the inhibitor at 50 mg/kg, with minimal intervention or trauma, for 1 month. We chose 9-month-old 5xFAD ([27]) male and female mice in double-blind experiments, so that well-progressed symptoms and pathologies would be present, to mimic clinically relevant cases in human patients ([35]), as has been previously described in this mouse model. Other than an improvement in nest quality ([36]) over time seen in animals receiving YB-537 (starting at age 8 months and ending at age 9 months), no changes to general physical parameters or wellbeing were observed over the 1 month of YB-537 ingestion (Supplemental Figure 6, A–J). Animals received the treatment for a week, and, on week 2, behavioral experiments commenced, including Morris water maze (MWM) and novel object recognition (NOR). These were carried out in parallel, with half of the animals (including both sexes and treatments) undergoing 1 of the paradigms in week 2, and the other in week 3. […] Since learning in this paradigm was slow, and performance was poor even following 6 days of training (using 4 learning trials a day), a test day was not carried out and instead only the learning rate was measured. […] Finally, during week 4, all the mice underwent DFC.
MWM was carried out as previously described ([57]). Mice were trained 4 times a day, using 60 second trials every 30 minutes during which they were placed into the pool, each time from a different quadrant, and allowed to swim to find the escape platform. All trials were filmed with a video tracking system using EthoVision 14 (Noldus Information Technology), and escape latency, or time to find the submerged escape platform, was determined by video analysis. […]
Morri s wat er maze ( MWM) was carried out as previously described(58). At the sam e time each consecutive day, mice were placed in the dimly lit room containing the maze for 10 min, within cages containing dry bedding (not the home cages). The maze was obscured by a non-light- permeable curtain. The maze consisted of a 1.2 m pool, with RT (21- 23 °C) water colored light grey, to hide the submerged (under 1- 2 cm) transparent, 10 cm in diam et er plastic escape platform, which was placed at t he south- western quadrant of the pool. Mi ce wer e trained 4 times a day, using 60 s trials ever y 30 min during which t he y were pl a c ed into t he pool, each time fr om a di fferent quadrant, and allowed to swim and find t he escape platform. Upon reaching t he platform, m ice were removed fr om t he pool. If the mice f ai led to find the […] within 60 s, […]
they were carefully placed on the escape platform and held there for 15 s prior to being taken out of the pool. All trials were filmed with a video tracking system using EthoVision 14 (Noldus Information Technology), andescape latency (time to find the submer ged escape platform) was determined by manual video analysis (due to automated det ect ion settings unable to discern all mice coat c ol or s – bl a c k, white a nd brown - against the opaque water).
Mice were individually placed within a cage and taken to a dimly lit room containing an open field arena 50 x 50 cm in size. They were gi ve n 10 min prior to be i ng placed within the arena, where f or a period of 5 min they were allowed to explore. Two weeks later, this was repeated. The mice were filmed with an Ikegami ICD-49E camera with EthoVision 14 (Noldus Information Technology). Th e fl oor was ei ther whit e or black,dependingon mous e coat c ol or, to allow automatic analysisof movement par am et ers, apar t from rearing which was manually counted. […]

With `Cc1ccc(-c2cn3cccc(C)c3n2)cc1S(=O)(=O)N1CCNCC1` [YB-537] the “MWM escape latency (individual mice)” value (both sexes, Day 1) was 60.0 (8×) and 29.4 and 26.8 and 55.1 and 57.2 and 53.5 (2×) and 41.6 and 50.9, the “MWM escape latency (individual mice)” value (both sexes, Day 2) was 60.0 (6×) and 28.0 and 23.5 and 59.7 and 50.7 and 45.3 and 33.5 and 15.1 and 54.5 and 36.1 and 58.0 and the “MWM escape latency (individual mice)” value (both sexes, Day 3) was 48.7 and 59.3 and 42.1 and 33.7 and 34.3 and 45.6 and 37.0 and 60.0 (2×) and 49.6 and 35.1 and 26.9 and 13.8 and 47.4 and 47.7 and 54.0. The “MWM escape latency (individual mice)” value (both sexes, Day 4, in s (unit assumed)) was 44.6 and 57.9 and 24.5 and 37.5 and 31.1 and 37.6 and 51.0 and 60.0 and 52.1 and 34.3 and 5.9 and 14.1 and 13.3 and 23.0 and 48.5 and 53.9, the “MWM escape latency (individual mice)” value (both sexes, Day 5, in s (unit assumed)) was 19.0 and 40.4 and 25.1 and 16.2 and 18.6 and 45.8 and 60.0 and 50.4 and 37.0 and 38.2 and 5.7 and 19.6 and 7.3 and 21.1 and 16.8 and 48.8 and the “MWM escape latency (individual mice)” value (both sexes, Day 6) was 39.3 and 17.9 and 20.3 and 12.9 and 14.8 and 34.0 and 50.7 and 60.0 and 14.1 and 16.8 and 5.6 and 7.2 (2×) and 16.3 and 19.0 and 27.9. For the same compound, the “MWM escape latency (individual mice)” value (males, Day 5, in s (unit assumed)) was 16.2 and 18.6 and 45.8 and 60.0 and the “spatial learning in MWM (escape latency over 6 days)” value (5xFAD, 50 mg/kg in drinking water, 1 month, both sexes) was “trend toward faster spatial learning”.
